Results: article PMC11642044 (International Journal of Molecular Sciences, 2024)
Where no end group is shown, it is not given here.

Key:
U87-MG cells = assay: Intracellular Ca2+ mobilization by Gq-coupled receptor agonists (FLIPR, Fluo-4), U87-MG; type: cell-based, human; details: U87-MG, FLIPR, Fluo-4, 3 min, n = 3
Method: (§1) Cells were seeded in 96-well plates (clear bottom and black wall) at 2.5 × 10^4 cells per well on the day before assay. The cells (~80–100% confluence) were then washed with Hank’s balanced salt solution (HBSS) and aspirated, followed by addition of 100 μL of FLIPR labeling dye (containing Fluo-4 and probenecid in HBSS) to each well before incubation at 37 °C for 1 h. Finally, the 96-well plate containing the labeled cells was transferred to the FLIPR (Molecular Devices, San Jose, CA, USA), and 50 μL of HBSS (with or without agonists) was added to each well. The fluorescent signals that reflect the intracellular Ca^2+ transients were monitored by an excitation wavelength of 488 nm, and detection was undertaken with an emission wavelength from 510 to 570 nm for 3 min upon the drug treatments, as described previously.

1321-N1 cells = assay: Intracellular Ca2+ mobilization by Gq-coupled receptor agonists (FLIPR, Fluo-4), 1321-N1; type: cell-based, human; details: 1321-N1, FLIPR, Fluo-4, 3 min, n = 3
Method: as §1

primary astrocytes = assay: Intracellular Ca2+ mobilization by Gq-coupled receptor agonists (FLIPR, Fluo-4), primary cortical astrocytes; type: cell-based, mouse; details: n = 4
Method: HEK293, U87-MG, 1321N1, SK-N-SH, and SK-N-MC cells were cultured in MEM supplemented with 10% (vol/vol) fetal bovine serum (FBS), 50 U/mL penicillin, and 50 μg/mL streptomycin. Primary astrocyte cultures were prepared from the cerebral cortexes of neonatal mice (P2). The cerebral hemispheres were isolated and transferred to ice-cold Hank’s buffer, and the meninges were carefully removed. Tissues were then minced into approximately 1 mm pieces, triturated, filtered through a 60 µm nylon screen, and collected by centrifugation at approximately 3000× g for 5 min. The cell pellets were dispersed with a pipette and resuspended in a medium containing 10% (vol/vol) FBS in low-glucose Dulbecco’s modified Eagle’s medium. After trituration, the cells were filtered through a 10 µm screen and then plated into 6-well plates at a density of 3 × 10^5 cells/mL and cultured for about 10 days. The medium was replaced twice per week. Dibutyryl cyclic adenosine monophosphate (DBcAMP; 0.15 mM, Sigma, St Louis, MO, USA) was added to induce differentiation when the cells were grown to 95% confluence. Primary mouse cortical neuronal cultures were obtained from E16 ICR mouse embryos. Briefly, cerebral cortices were removed from mouse embryos and mechanically dissociated in PBS with glucose (18 mM). Neurons were then seeded onto poly-L-lysine (1 mg/mL)-coated 96-well plates at 5 × 10^4 cells/well in a B27 Plus Neuronal culture system (Thermo Fisher Scientific), supplemented with 2 mM glutamine, 5 μM mercaptoethanol, 100 U/mL penicillin and 100 μg/mL streptomycin. The cultured neurons were maintained in a humidified incubator at 37 °C with 5% CO2 for 7 days prior to use.
as §1

[1] = tested on: B2R-mediated LIF secretion in U87-MG cells; assay: Inhibition of bradykinin-induced LIF production (ELISA), U87-MG; type: cell-based, human; details: 10 μM inhibitor, 30 min pre-treatment, bradykinin 1 µM, 24 h
Method: Conditioned media were analyzed for the presence of multiple cytokines by using the cytokine multiplex assay kits (Merck Millipore, MA, USA) as previously described. Briefly, a bead mixture with various capture antibodies (50 μL) was added to a 96-well microtiter plate, followed by 50 μL of cytokine standard mix or test sample and then 25 μL of a biotinylated detection antibody mixture. The mixtures were incubated for 30 min at 25 °C with gentle shaking. Unbound antibodies were removed by three gentle washes. Finally, 50 μL of streptavidin–PE solution was added and incubated for another 30 min with gentle shaking. The detection beads were then washed again and resuspended in 120 μL of reading buffer. The Bio-Plex™ 200 system (Bio-Rad Laboratories, Hercules, CA, USA) with the Bio-Plex manager software (version 5.0) was utilized for signal detection and data analysis. Curve fitting was applied to each standard curve according to the manufacturer’s manual and sample concentrations were interpolated from the standard curves. Individual detections for LIF and IL-6 were performed using the corresponding ELISA kits from Abcam (Cambridge, UK) according to the manufacturer’s instructions.
The resulting Ca^2+ signal profiles were monitored by FLIPR for 3 min.

[2] = tested on: melatonin MT1 receptor with Gα16; type: cell-based, human
Method: Supplementary Methods (for Supplementary Figures) […]
(Merck Millipore, MA, USA). HEK293 cells (80-100% confluence in 6-well plates) stably expressing MT1R alone or together with Gα16 as described previously [Ref. 21] were treated with 1 μM of melatonin (Tocris Bioscience, Minneapolis, MN) in 1 mL of MEM per well without FBS for 24 h. The resulting conditioned media were collected in 1.5 mL microcentrifuge tubes, with the presence of secretory LIF and IL-6 quantified by ELISA assays (Abcam, Cambridge, UK) according to the manufacturer’s […]

STAT3 in SK-N-MC cells = assay: STAT3 Tyr705 phosphorylation in SK-N-MC by conditioned media from agonist-treated U87-MG; type: cell-based, human; details: U87-MG treated with bombesin 1 μM, bradykinin 1 μM or histamine 10 μM, 24 h; media on SK-N-MC 15 min
Method: These conditioned media were either immediately applied to SK-N-SH/SK-N-MC cells (80–100% confluence) in 6-well plates for 15 min, or subjected to heat treatment on a 96 °C heat block for 5 min, and then cooled to 37 °C before they were applied to the SK-N-SH/SK-N-MC cells for 15 min. […] For the SK-N-MC-derived conditioned media, SK-N-MC cells (80–100% confluence) in a 10 cm culture dish were serum-starved in 10 mL of MEM (without FBS), with 1 mL of the resulting conditioned medium being collected at indicated time points (15 min, 1 h, 3 h, 6 h). Simultaneously, U87-MG cells (80–100% confluence) in 12-well plates were serum-starved in MEM for 6 h, followed by pretreatment of […] (5 μM, 15 min), and then challenged with the SK-N-MC-derived conditioned media (mentioned above) for 10 min before cell lysis. […]
SDS-PAGE and Western blotting were performed as described in our previous studies. […] The amount of protein in each sample was determined by detergent compatible (DC) protein assay according to the supplier’s instruction (Bio-Rad, Hercules, CA, USA). […] Resolved proteins were detected by specific primary antibodies and horseradish peroxidase-conjugated secondary antisera. The level of β-actin was determined as an internal control.

[3] = tested on: STAT3 in primary mouse astrocytes; assay: STAT3 phosphorylation by direct application of cytokine, primary astrocytes; type: cell-based; details: 0–100 ng/mL, 15 min, n = 3
Method: To determine if the experimental cells were readily responsive to LIF and IL-6, SK-N-MC cells, mouse primary neurons and primary astrocytes (80–100% confluence in 12-well plates) were serum-starved for 6 h, followed by treatment of indicated concentrations (0–100 ng/mL) of LIF and IL-6 for 15 min. The subsequent cell lysates were subjected to SDS-PAGE and Western blot with specific antibodies to detect stimulatory phosphorylated forms and the total amounts of STAT3.
SDS-PAGE and Western blotting were performed as described in our previous studies. In brief, cells in 6-well plates (5 × 10^5 cells/well) were lysed in 500 μL of ice-cold lysis buffer (50 mM Tris-HCl at pH 7.5 containing 100 mM NaCl, 5 mM EDTA, 40 mM NaP2O7, 1% Triton X-100, 1 mM dithiothreitol, 200 μM Na3VO4, 100 μM phenylmethylsulfonyl fluoride, 2 μg/mL leupeptin, 4 μg/mL aprotinin, and 0.7 μg/mL pepstatin) and then gently shaken for 30 min. The amount of protein in each sample was determined by detergent compatible (DC) protein assay according to the supplier’s instruction (Bio-Rad, Hercules, CA, USA). Clarified lysates (30 μg protein per sample) were resolved on 12% SDS-polyacrylamide gels and then transferred to nitrocellulose membranes (Westborough, MA, USA). Resolved proteins were detected by specific primary antibodies and horseradish peroxidase-conjugated secondary antisera. The level of β-actin was determined as an internal control. Immunoblots were visualized by chemiluminescence with the WesternBright ECL reagents from Advansta (San Jose, CA, USA). Chemiluminescence signals were then detected by ChemiDoc imaging systems (Bio-Rad, Hercules, CA, USA) with the subsequent band densities quantified by ImageJ (https://imagej.net/ij/) analysis software (National Institutes of Health, MD, USA). All primary antibodies which specifically recognize B1R, B2R, ERK, p-ERK, p38, p-p38, JNK, p-JNK, STAT3, p-STAT3, and β-actin were applied at 1:1000 dilution for Western blotting.

## Nc1ncnc2c1ncn2[C@@H]1O[C@H](COP(=O)(O)OP(=O)(O)OP(=O)(O)O)[C@@H](O)[C@H]1O [ATP]
U87-MG cells; 1 μM agonist
  intracellular Ca2+ response: effective in U87-MG cells
1321-N1 cells; 1 μM agonist
  intracellular Ca2+ response: did not respond to ATP for triggering Ca^2+ transients
Primary astrocytes; 1 μM agonist
  intracellular Ca2+ mobilization: significantly stimulated Ca^2+ mobilization

## Cn1c2ccccc2c2c3c(c4c5ccccc5n(CCC#N)c4c21)CNC3=O [Go6976]
[1]
  inhibition of bradykinin-induced LIF secretion by protein kinase inhibitors: Partial inhibition of LIF secretion

## COc1cccc(-c2cc(=O)c3ccccc3o2)c1N [PD98059]
[1]
  inhibition of bradykinin-induced LIF secretion by protein kinase inhibitors: found to require

## C[S+]([O-])c1ccc(-c2nc(-c3ccncc3)c(-c3ccc(F)cc3)[nH]2)cc1 (centres unmarked) [SB203580]
[1]
  inhibition of bradykinin-induced LIF secretion by protein kinase inhibitors: found to require

## Oc1c2ccccc2c2c3c(cccc13)N=N2 [SP600125]
[1]
  inhibition of bradykinin-induced LIF secretion by protein kinase inhibitors: partially inhibited bradykinin-induced LIF secretion

## CN(C)S(=O)(=O)c1ccc2c(c1)/C(=C/c1cc3c([nH]1)CCCC3)C(=O)N2 [SU6656]
[1]
  inhibition of bradykinin-induced LIF secretion by protein kinase inhibitors: found to require

## N[C@@H](CCC(=O)O)C(=O)O [glutamate]
Primary astrocytes; 1 μM agonist
  intracellular Ca2+ mobilization: significantly stimulated Ca^2+ mobilization

## COc1ccc2[nH]cc(CCNC(C)=O)c2c1 [melatonin]
[2]
  IL-6 release: induced the release of both LIF and IL-6
  LIF release: induced the release of both LIF and IL-6

## CNC[C@H](O)c1cccc(O)c1 [phenylephrine]
Primary astrocytes; 10 μM agonist
  intracellular Ca2+ mobilization: significantly stimulated Ca^2+ mobilization

## CCCCC[C@H](O)/C=C/[C@H]1[C@H](O)CC(=O)[C@@H]1C/C=C\CCCC(=O)O [prostaglandin E2]
Primary astrocytes; 1 μM agonist
  intracellular Ca2+ mobilization: significantly stimulated Ca^2+ mobilization

## NCCc1c[nH]c2ccc(O)cc12 [serotonin]
U87-MG cells; 10 μM agonist
  intracellular Ca2+ response: could not trigger the activity
1321-N1 cells; 10 μM agonist
  intracellular Ca2+ response: could not trigger the activity

## CCCCCCCCCCCCC/C=C/[C@@H](O)[C@@H](N)COP(=O)(O)O [sphingosine-1-phosphate]
U87-MG cells; 1 μM agonist
  intracellular Ca2+ response: significantly stimulated intracellular Ca^2+ responses
1321-N1 cells; 1 μM agonist
  intracellular Ca2+ response: significantly stimulated intracellular Ca^2+ responses
Primary astrocytes; 1 μM agonist
  intracellular Ca2+ mobilization: significantly stimulated Ca^2+ mobilization

## angiotensin II (DRVYIHPF; Angiotensin-2; UniProt P01019 25-32, looked up)
U87-MG cells; 1 μM agonist
  intracellular Ca2+ response: effective in U87-MG cells

## bombesin
U87-MG cells; 1 μM agonist
  intracellular Ca2+ response: significantly stimulated intracellular Ca^2+ responses
STAT3 in SK-N-MC cells
  STAT3 Tyr705 phosphorylation by conditioned media: sometimes failed to induce STAT3 phosphorylation
1321-N1 cells; 1 μM agonist
  intracellular Ca2+ response: significantly stimulated intracellular Ca^2+ responses
Primary astrocytes; 1 μM agonist
  intracellular Ca2+ mobilization: significantly stimulated Ca^2+ mobilization

## endothelin
1321-N1 cells; 100 nM agonist
  intracellular Ca2+ response: elicited Ca^2+ responses in 1321-N1 cells
Primary astrocytes; 100 nM agonist
  intracellular Ca2+ mobilization: significantly stimulated Ca^2+ mobilization

## interleukin-6 [IL-6]
[3]
  STAT3 phosphorylation: significant stimulatory phosphorylation of STAT3

## neurokinin B
Primary astrocytes; 1 μM agonist
  intracellular Ca2+ mobilization: significantly stimulated Ca^2+ mobilization

## neuromedin U25 (FRVDEEFQSPFASQSRGYFLFRPRN; ends and bridges not checked; UniProt P48645 142-166, looked up)
U87-MG cells; 1 μM agonist
  intracellular Ca2+ response: effective in U87-MG cells

## neurotensin
U87-MG cells; 1 μM agonist
  intracellular Ca2+ response: could not trigger the activity
1321-N1 cells; 1 μM agonist
  intracellular Ca2+ response: could not trigger the activity

## oxytocin
U87-MG cells; 1 μM agonist
  intracellular Ca2+ response: effective in U87-MG cells
Primary astrocytes; 1 μM agonist
  intracellular Ca2+ mobilization: significantly stimulated Ca^2+ mobilization
